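Protocol summary: plate cells (96-well), add compound at 5 concentrations, incubate 48 h, interpolate endpoints linearly. GI50: concentration for 50% inhibition of growth.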 Activity calls are given as the source filed them. Rule as the data show it: active = GI50 up to about 1.1 µM and inactive = higher.
Experiments:
Experiment in all cases: NCI tumour cell line growth inhibition, 48 h
[1] = tested on: NCI-H23
[2] = tested on: NCI-H226
[3] = tested on: MDA-MB-435
[4] = tested on: HCC 2998
[5] = tested on: NCI-H522
[6] = tested on: PC-3
[7] = tested on: UO-31
[8] = tested on: HOP-92
[9] = tested on: 786-0
[10] = tested on: IGROV-1
[11] = tested on: HT-29
[12] = tested on: M14
[13] = tested on: LOX IMVI
[14] = tested on: RXF 393
[15] = tested on: HOP-62
[16] = tested on: KM12
[17] = tested on: MOLT-4
[18] = tested on: SF-268
[19] = tested on: DU-145
[20] = tested on: SN12C
[21] = tested on: OVCAR-4
[22] = tested on: Hs-578T
[23] = tested on: U-251
[24] = tested on: T47D
[25] = tested on: A549
[26] = tested on: HCT-116
[27] = tested on: MCF7
[28] = tested on: SK-MEL-5
[29] = tested on: RPMI-8226
[30] = tested on: SF-295
[31] = tested on: UACC-257
[32] = tested on: SK-MEL-2
[33] = tested on: OVCAR-8
[34] = tested on: SNB-19
[35] = tested on: SW-620
[36] = tested on: EKVX
[37] = tested on: UACC-62
[38] = tested on: OVCAR-5
[39] = tested on: CAKI-1
[40] = tested on: SK-OV-3
[41] = tested on: MDA-MB-231
[42] = tested on: Malme-3M
[43] = tested on: ACHN
[44] = tested on: OVCAR-3
[45] = tested on: SF-539
[46] = tested on: NCI-H460
[47] = tested on: SK-MEL-28
[48] = tested on: TK-10
[49] = tested on: COLO 205
[50] = tested on: CCRF-CEM
[51] = tested on: HCT-15
[52] = tested on: A498
[53] = tested on: SR
[54] = tested on: MDA-N
[55] = tested on: BT-549
[56] = tested on: HL-60
[57] = tested on: NCI/ADR-RES
[58] = tested on: SNB-75
[59] = tested on: K562

Measured: GI50

Cc1ccc(S(=O)(=O)N/N=C/C(Br)=C(/Br)C(=O)O)cc1
2.19 µM: [51]
inactive: [1] 6.1 µM | [2] 8.55 µM | [3] 4.43 µM | [4] 4.29 µM | [5] 1.99 µM | [6] 8.89 µM | [7] 4.66 µM | [8] 11.3 µM | [9] 3.42 µM | [10] 16.1 µM | [11] 5.16 µM | [12] 4.53 µM | [13] 3.03 µM | [14] 2.21 µM | [15] 16.2 µM | [16] 10.6 µM | [18] 11.4 µM | [19] 12.2 µM | [20] 9.93 µM | [21] 6.22 µM | [22] 10.7 µM | [23] 4.22 µM | [24] 4.57 µM | [25] 19.5 µM | [26] 1.91 µM | [27] 7.41 µM | [28] 11.7 µM | [29] 1.66 µM | [30] 14.1 µM | [31] 12.1 µM | [32] 14.6 µM | [33] 2.6 µM | [34] 13.8 µM | [35] 2.2 µM | [36] 10.2 µM | [37] 8.17 µM | [38] > 19.7 µM | [39] 5.64 µM | [40] 16.4 µM | [41] 14.8 µM | [42] 4.39 µM | [43] 2.71 µM | [44] 6.97 µM | [45] 5.69 µM | [46] 17.5 µM | [47] 2.94 µM | [48] 7.69 µM | [49] 3.44 µM | [50] 1.42 µM | [52] 16.4 µM | [54] 4.69 µM | [55] 6.55 µM | [56] 1.93 µM | [57] 3.69 µM | [58] 22.1 µM
active: [17] 0.826 µM | [53] 0.321 µM

O=C1CCC(CCc2nc3ccccc3[nH]2)(c2ccccc2)C(=O)N1 (stereo unspecified)
inactive: [1] > 100 µM | [2] > 100 µM | [3] > 100 µM | [4] > 100 µM | [5] 47.4 µM | [6] > 100 µM | [7] 20.2 µM | [8] 83.6 µM | [9] > 100 µM | [10] 64 µM | [11] > 100 µM | [12] > 100 µM | [13] > 100 µM | [14] > 100 µM | [15] > 100 µM | [16] > 100 µM | [18] > 100 µM | [19] > 100 µM | [20] > 100 µM | [21] > 100 µM | [22] 29.7 µM | [23] > 100 µM | [24] > 100 µM | [25] > 100 µM | [26] > 100 µM | [27] > 100 µM | [59] 64 µM | [28] > 100 µM | [29] > 100 µM | [30] > 100 µM | [31] > 100 µM | [32] > 100 µM | [33] > 100 µM | [34] > 100 µM | [35] > 100 µM | [36] 62.4 µM | [37] > 100 µM | [38] > 100 µM | [39] > 100 µM | [40] > 100 µM | [41] > 100 µM | [42] > 100 µM | [43] > 100 µM | [44] > 100 µM | [45] > 100 µM | [46] > 100 µM | [47] > 100 µM | [48] > 100 µM | [49] > 100 µM | [50] > 100 µM | [52] > 100 µM | [53] > 100 µM | [54] > 100 µM | [55] > 100 µM | [56] > 100 µM | [57] > 100 µM | [58] 86.1 µM
> 100 µM: [51]

Source: ChEMBL document CHEMBL1201862, “PubChem BioAssay data set” (2004)
